Reference: patent US10596172B2 (Celgene CAR LLC, priority 2008, dated 2020)

Key:
Erbb4 kinase domain = Erbb4 kinase domain (Homo sapiens (Human), UniProt Q15303); test: Mass spectrometry for ERBB4; format: binding; conditions: 60 minutes at 10-fold excess of compound
Description: Erbb4 kinase domain (Upstate) was incubated with compound for 60 minutes at 10-fold excess of compound I-4 and I-11 to protein. 1 μl aliquots of the samples (total volume of 4.24 ul) were diluted with 10 μl of 0.1% TFA prior to micro C4 ZipTipping directly onto the MALDI target using Sinapinic acid as the desorption matrix (10 mg/ml in 0.1% TFA:Acetonitrile 50:50). For intact protein mass measurement the instrument was set in Linear mode using a pulsed extraction setting of 16,952 for the myoglobin standard used to calibrate the instrument (Shimadzu Axima TOF^2).
Intact ErbB4 protein occurs at MH+ of 35850 with corresponding sinapinic (matrix) adducts occurring about 200 Da higher. A stoichiometric incorporation of the test compound (I-4 and I-11) (Mw of 410 Da) produced a new mass peak which is approximately 410 Da higher (MH+ of 36260).

TEC kinase = TEC kinase (Homo sapiens (Human), UniProt P42680); test: Mass spectrometry for TEC kinase (tryptic digest); format: binding; conditions: 3 hrs at 10x excess
Chain of TEC kinase (P42680 whole entry): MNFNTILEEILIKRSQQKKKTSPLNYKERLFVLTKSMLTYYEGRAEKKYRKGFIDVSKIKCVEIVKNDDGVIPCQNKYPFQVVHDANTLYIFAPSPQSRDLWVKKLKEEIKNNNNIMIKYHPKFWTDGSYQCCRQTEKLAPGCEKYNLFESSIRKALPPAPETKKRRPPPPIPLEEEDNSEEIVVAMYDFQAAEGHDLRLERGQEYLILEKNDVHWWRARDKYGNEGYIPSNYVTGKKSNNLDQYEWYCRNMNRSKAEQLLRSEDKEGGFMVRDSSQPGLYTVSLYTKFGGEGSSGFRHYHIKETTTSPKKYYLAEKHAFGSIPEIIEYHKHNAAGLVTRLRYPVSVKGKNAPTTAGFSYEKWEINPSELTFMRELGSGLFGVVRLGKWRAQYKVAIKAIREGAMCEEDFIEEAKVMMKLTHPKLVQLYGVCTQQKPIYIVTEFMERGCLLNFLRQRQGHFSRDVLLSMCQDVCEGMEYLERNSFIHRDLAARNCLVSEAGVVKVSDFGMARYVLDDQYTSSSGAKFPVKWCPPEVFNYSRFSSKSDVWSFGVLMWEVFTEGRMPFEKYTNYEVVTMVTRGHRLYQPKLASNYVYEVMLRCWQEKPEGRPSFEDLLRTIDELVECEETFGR
Description: (§1) TEC kinase (45 pmols; Invitrogen) was incubated with (I-2) (450 pmols) for 3 hrs at 10× excess prior to tryptic digestion. Iodoacetamide was used as the alkylating agent after compound incubation. […] For tryptic digests a 5 ul aliquot (7.5 pmols) was diluted with 15 ul of 0.1% TFA prior to micro C18 Zip Tipping directly onto the MALDI target using alpha cyano-4-hydroxy cinnamic acid as the matrix (5 mg/ml in 0.1% TFA:Acetonitrile 50:50).
As depicted in FIG. 6, the expected peptide ([…]) to be modified was immediately evident after reaction with I-2 (MI mass of 359.17 Da) at MH+ of 1294.72. The peptide was also quite evident in the control sample as modified by Iodacetamide at MH+ of 992.56. […] There was no evidence of other modified peptides.
For tryptic digests the instrument was set in Reflectron mode with a pulsed extraction setting of 2200. Calibration was done using the Laser Biolabs Pep Mix standard ([…], 1296.69, 1672.92, 2093.09, 2465.20). For CID/PSD analysis the peptide was selected using cursors to set ion gate timing and fragmentation occurred at a laser power about 20% higher and He was used as the collision gas for CID. Calibration for fragments was done using the P14R fragmentation calibration for the Curved field Reflectron.
as §1, with “(I-4)” for “(I-2)”
As depicted in FIG. 7, the expected peptide ([…]) to be modified was immediately evident at MH+ of 1355.72. This is the mass to be expected when compound I-4, with an adduct mass of 420.21, is added to the peptide mass of 935.51. The peptide was also quite evident in the control sample as modified by Iodacetamide at MH^+ of 992.56. […] There was no evidence of other modified peptides. […]

BTK [1] = molecular target: T1, BTK (Homo sapiens (Human), UniProt Q06187); test: Mass spectrometry for BTK (covalent modification of intact protein); format: binding; conditions: 1 hr, 10x fold excess of compound
T1 sequence (Q06187 whole entry): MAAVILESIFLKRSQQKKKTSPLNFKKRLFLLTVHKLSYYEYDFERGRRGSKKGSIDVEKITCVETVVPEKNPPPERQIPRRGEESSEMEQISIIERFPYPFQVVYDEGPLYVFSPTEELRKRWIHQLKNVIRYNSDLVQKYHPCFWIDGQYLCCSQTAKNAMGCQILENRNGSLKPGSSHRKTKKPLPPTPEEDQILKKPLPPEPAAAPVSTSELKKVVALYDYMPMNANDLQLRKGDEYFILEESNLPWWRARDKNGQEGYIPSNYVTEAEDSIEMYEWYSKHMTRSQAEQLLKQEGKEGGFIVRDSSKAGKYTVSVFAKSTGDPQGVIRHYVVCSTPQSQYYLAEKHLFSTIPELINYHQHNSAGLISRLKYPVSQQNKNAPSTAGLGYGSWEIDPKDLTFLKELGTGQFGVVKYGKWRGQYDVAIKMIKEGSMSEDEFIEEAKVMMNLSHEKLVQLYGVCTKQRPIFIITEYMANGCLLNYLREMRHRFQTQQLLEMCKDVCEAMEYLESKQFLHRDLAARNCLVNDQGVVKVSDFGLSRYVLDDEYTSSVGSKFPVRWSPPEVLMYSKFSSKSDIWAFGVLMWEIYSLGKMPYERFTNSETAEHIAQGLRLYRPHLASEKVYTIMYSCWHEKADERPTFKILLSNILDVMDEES
Description: Intact BTK was incubated for 1 hr at a 10× fold excess of I-7 to protein. Aliquots (2 μl) of the samples were diluted with 10 μl of 0.1% TFA prior to micro C4 ZipTipping directly onto the MALDI target using Sinapinic acid as the desorption matrix (10 mg/ml in 0.1% TFA:Acetonitrile 20:80).

BTK [2] = molecular target: T1, BTK; test: Washout experiment with I-7 and probe compound I-215 in Ramos cells; format: cell-based; conditions: 0.1 μM, 1 hour
Description: Ramos cells were incubated with 0.1 μM I-7 or a reversible BTK inhibitor control compound in serum free media for 1 hour at 37° C. The cells were then washed in compound-free media and lysed 0, 4, 6, or 8 hours after compound removal. Cell lysates were incubated with 1 μM I-215 for 1 hour at room temperature, then overnight at 4° C. with streptavidin-coupled agarose beads. Protein was boiled off the beads and BTK association was assessed by western blot. […] In contrast, with the reversible inhibitor control, 45% of BTK protein is unbound and available to the probe at 0 hours and by 4 hours 100% of BTK protein is unbound and available to bind the probe. All samples were normalized to the DMSO-treated cells harvested at 0 hours.

Chain of Erbb4 kinase domain (Q15303 718-985): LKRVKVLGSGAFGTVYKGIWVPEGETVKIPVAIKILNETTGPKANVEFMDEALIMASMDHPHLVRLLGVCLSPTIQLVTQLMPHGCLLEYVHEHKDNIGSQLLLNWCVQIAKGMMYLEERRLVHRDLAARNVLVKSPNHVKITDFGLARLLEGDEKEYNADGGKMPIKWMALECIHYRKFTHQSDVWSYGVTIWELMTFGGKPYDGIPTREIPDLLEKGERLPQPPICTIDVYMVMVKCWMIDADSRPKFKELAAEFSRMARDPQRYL

covalent modification of ErbB4 by mass spectrometry (Erbb4 kinase domain) | covalent modification of TEC kinase peptide GCLLNFLR (Cys449) by mass spectrometry (TEC kinase) | covalent modification of BTK by mass spectrometry (BTK [1]) | time BTK protein remains occupied after compound removal (BTK [2]) | Structure (SMILES)
covalent modification | reaction was complete | – | – | Cc1cccc(Nc2nc(Nc3cccc(NC(=O)/C=C/CN(C)C)c3)ncc2F)c1 [Compound I-4, (E)-4-(dimethylamino)-N-(3-(5-fluoro-4-(m-tolylamino)pyrimidin-2-ylamino)phenyl)but-2-enamide]
– | reaction was complete | complete modification | over 8 hours | C=CC(=O)Nc1cccc(Nc2nc(Nc3ccccc3)ncc2C)c1 [Compound I-7, N-(3-(5-methyl-2-(phenylamino)pyrimidin-4-ylamino)phenyl)acrylamide]
